Experimental data published in patent US20260335341A1, “METHODS FOR TREATING PAEDIATRIC NEUROLOGICAL DISORDERS” (Neurotech International Limited, priority 2022, published 2026).
Read-outs that look alike come from different tables or passages of the source.

Tests used:
[1] = Stability of NTI164 oil formulation at room temperature (UPLC)
TNF-ALPHA = experiment: TNF-alpha in microglial culture media, psylocibin combination (Example 9); format: cell-based; settings: PBS control 1.00, positive activation I&I 10.67
Description: Microglia media harvested following treatment initiation was centrifuged briefly to remove particulates (300 g for 10 min). The level of TNFα in the microglial culture media was measured using a Bio-Plex 200 with a 96-well magnetic plate assay according to the manufacturer's instructions (Bio-Rad). The samples were run in duplicate that were averaged for analysis. At least three samples per group were run.

[2] = NTI164 oil, room temperature, Day 14

Row | SMILES | Cannabinoid content of NTI164, Day 14 [1] [mg/mL] | Cannabinoid content of NTI164, Day 0 ([1]; NTI164 oil, room temperature) [mg/mL] | Cannabinoid content of NTI164, Day 2 ([1]; NTI164 oil, room temperature) [mg/mL] | Cannabinoid content of NTI164, Day 7 ([1]; NTI164 oil, room temperature) [mg/mL] | Cannabinoid content of NTI164, Day 28 ([1]; NTI164 oil, room temperature) [mg/mL] | Cannabinoid content of NTI164, Week 5 ([1]; NTI164 oil, room temperature) [mg/mL] | Cannabinoid content of NTI164, Week 6 ([1]; NTI164 oil, room temperature) [mg/mL] | Cannabinoid content of NTI164, Week 32 ([1]; NTI164 oil, room temperature) [mg/mL] | Cannabinoid content of NTI164, Day 14 [1, 2] [mg/mL] | TNF-alpha assessment result (TNF-ALPHA; 1 ug/ml) | TNF-alpha assessment result (TNF-ALPHA; 5 ug/ml)
1 | CCCCCc1cc2c(c(O)c1C(=O)O)[C@@H]1C=C(C)CC[C@H]1C(C)(C)O2 [(Tetrahydrocannabinolic acid) (D9-THCA), Delta-9-tetrahydrocannabinolic acid] | 0.69 | 0.66 | 0.72 | 0.64 | 0.36 | 0.79 | 0.73 | <0.1 |  |  | 
2 | CCCCCc1cc(O)c2c(c1)OC(C)(CCC=C(C)C)C=C2 (stereo not shown) [Cannabichrome(CBC), Cannabichromene] |  | 1.23 | 1.19 | 1.34 | 1.27 | 1.20 | 1.15 | 1.22 | 1.22 |  | 
3 | C=C(C)[C@@H]1CCC(C)=C[C@H]1c1c(O)cc(CCCCC)c(C(=O)O)c1O [Cannabidiol acid (CBD-A), Cannabidiol acid] |  | 48.16 | 48.19 | 48.62 | 47.12 | 48.35 | 47.56 | 47.01 | 48.09 |  | 
4 | C=C(C)[C@@H]1CCC(C)=C[C@H]1c1c(O)cc(CCC)cc1O [Cannabidivarin (CBDV), Cannabidivarin] |  | <0.1 | <0.1 | <0.1 | <0.1 | 0.10 | <0.1 | 0.13 | <0.1 |  | 
5 | CCCCCc1cc(O)c(C/C=C(\C)CCC=C(C)C)c(O)c1 [Cannabigerol (CBG), Cannabigerol] |  | 5.21 | 5.23 | 5.14 | 5.1 | 5.30 | 5.28 | 5.12 | 5.1 |  | 
6 | CCCCCc1cc(O)c(C/C=C(\C)CCC=C(C)C)c(O)c1C(=O)O [Cannabigerol Acid(CBG-A), Cannabigerolic acid] |  | 1.07 | 1.18 | 1.20 | 0.81 | 1.08 | 1.00 | 1.05 | 1.19 |  | 
7 | CCCCCc1cc(O)c2c(c1)OC(C)(C)c1ccc(C)cc1-2 [Cannabinol (CBN), Cannabinol] | 2.33 | 2.32 | 2.54 | 2.48 | 2.56 | 2.22 | 2.27 | 2.21 |  |  | 
8 | CCCCCc1cc(O)c2c(c1)OC(C)(C)C1CC=C(C)CC21 (stereo not shown) [DELTA-8-THC (D8-THC), Delta-8-tetrahydrocannabinol] | <0.1 | <0.1 | <0.1 | <0.1 | <0.1 | <0.1 | <0.1 | <0.1 |  |  | 
9 | CN(C)CCc1c[nH]c2cccc(OP(=O)(O)O)c12 [SubP (Psylocibin), Psylocibin] |  |  |  |  |  |  |  |  |  | 4.87 | 9.17
10 | CCCCCc1cc(O)c2c(c1)OC(C)(C)[C@@H]1CCC(C)=C[C@@H]21 [Tetrahydrocannabinol (D9-THC), Delta-9-tetrahydrocannabinol] |  | <0.1 | <0.1 | <0.1 | <0.1 | 0.14 | <0.1 | 0.11 | <0.1 |  | 
11 | CCCc1cc(O)c2c(c1)OC(C)(C)[C@@H]1CCC(C)=C[C@@H]21 [Tetrahydrocannabivarin (THCV), Tetrahydrocannabivarin] | <0.1 | <0.1 | <0.1 | <0.1 | <0.1 | <0.1 | <0.1 | <0.1 |  |  | 
